Source: BindingDB's records for doi:10.1016/j.bmcl.2005.04.079 (F. Hoffmann-La Roche, 2005)

Target: T1, Serine protease 1 (Bos taurus, UniProt P00760)
T1 sequence (P00760 whole entry): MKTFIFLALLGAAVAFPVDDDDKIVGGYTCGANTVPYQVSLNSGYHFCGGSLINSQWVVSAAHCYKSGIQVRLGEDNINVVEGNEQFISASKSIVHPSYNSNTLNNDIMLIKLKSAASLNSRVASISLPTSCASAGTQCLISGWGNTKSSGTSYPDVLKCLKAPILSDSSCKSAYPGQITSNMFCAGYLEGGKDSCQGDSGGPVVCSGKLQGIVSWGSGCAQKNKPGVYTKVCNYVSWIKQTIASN
Assay: Serine Protease Inhibition Assay
Protocol: The enzyme reactions were initiated by the addition of substrate, and the color developed from the release of p-nitroanilide from each chromogenic substrate was monitored continuously for 5 min at 405 nm on a microtiter plate reader. […] The apparent Ki values were then calculated according to the Cheng-Prusoff equation: Ki = IC50/1 + [S]/Km.

Ki: > 68 µM
SMILES: CCOc1cc(-c2ccccc2)cc(C(Nc2ccc(C(=N)N)cc2)C(=O)O)c1 (stereo unspecified) [2-[(4-carbamimidoylphenyl)amino]-2-(3-ethoxy-5-phenylphenyl)acetic acid]
